This is an account of results in US12673106B2, “Modulators of nuclear receptor subfamily 4 group A member 1 (NR4A1) and uses thereof” (University of Florida Research Foundation, Incorporated, priority 2020, dated 2026).

One data set concerns T47D cells. The data set can be described thus: MTS viability assay, T47D cells. Particulars: relative to celastrol or NR-V04-NT. It is filed as cell-based. The text has this: NR4A1-Ps selectively kill breast cancer cells. Since NR-V04 is very efficient in NR4A1 degradation, a negative control, NR-V04-NT, was synthesized.
Data set [1] deals with B16F10 melanoma. Briefly: B16F10 melanoma model in NSG mice. Type of data set: in vivo, mouse. Particulars: 1.8 mg/kg twice weekly for 3 weeks. An excerpt: (§1) FIG. 10A-10C. […] Tumor growth were monitored via palpation. N=7 mice/group. FIG. 10A and FIG. 10B are the same experiment, but FIG. 10B includes only control vehicle and NR-V04 treated groups in FIG. 10B.
The next data set deals with RENCA cells. The data set can be described thus: RENCA renal cancer model in Balb/C mice. Type of data set: in vivo, mouse. The method, then: RENCA cells (10,000 per injection) were injected into s.c. of 8-week Balb/C mice, following with vehicle or NR-V04 treatment i.p. at 8 mg/kg weekly, starting at day 15 after tumor cell injection. Tumor volume was recorded.
(§2) FIG. 13A-FIG. 13C. Influence of NR-V04 treatment on TI-Tregs from (FIG. 13A) B16F10 melanoma, 1.8 mg/kg twice weekly for 3 weeks; (FIG. 13B) RENCA renal cancer model, 20 mg/kg once a week for 3 weeks; (FIG. 13C-13D) Py8119 breast cancer model, 8 mg/kg once a week for 3 weeks; with FIG. 13C showing the ratios between Treg/Tconv and FIG. 13D showing Treg/CD8+ T cell ratios.
Some of the above tumor models will be included, initially using immune responsive tumors including RENCA and MC38 model. […] Tumor volumes will be determined twice weekly by a caliper and calculated as length×width^2×0.5. Animal will be terminated once the largest tumors reach 2 cm in diameter per IACUC protocol (size is justified to determine lung metastasis). • The parameters include: • Primary tumors—Tumors will be cut into pieces and used for: a) immunohistochemical (IHC) staining (embedding in OCT compound and freezing). […]

Data set [2] relates to B16F10 melanoma. Briefly: B16F10 melanoma model in C57BL/6J mice. Type of data set: in vivo, mouse. As to the method: as §1, §2
Another data set concerns CD8+ T cells. The data set can be described thus: CD8 T cell activation in B16F10 tumor bearing mice, flow cytometry. Type of data set: in vivo, mouse. Particulars: 1.8 mg/kg, one week (two doses). As to the method:
B16F10 tumor bearing mice were treated with control vehicle or 1.8 mg/kg of NR-V04 for one week (two doses). CD8 T cells were analyzed for activation from tumors, spleen and blood. FIG. 15A. CD44+CD62L+(central memory, CM) and FIG. 15B. CD44+CD62L− (effector memory, EM) of CD8+ T cells were quantitated using flow cytometry.
We also determined the impact of NR-V04 on exhaustion and activation of CD8^+ T cells.

The next data set has as its system human T cells from PBMC. The data set can be described thus: T cells from human PBMC of cancer patients, CD3/CD28 co-stimulated, flow cytometry. It is filed as cell-based. Conditions: 500 nM or 1 uM, two days. The method, then: T cells were purified from human PBMC from cancer patients and co-stimulated with anti-CD3/CD28 dynabeads for 3 days, following with DMSO, 500 nM or 1 uM of NR-V04 treatment for two days. FIG. 14A-14B, different sub-population of T cell numbers were quantitated via flow cytometry (FIG. 14A), with Treg panel separated (FIG. 14B).
In agreement with the in vivo models, we also activated all human T cells from PBMC of cancer patients, following with the treatment of various concentrations of NR-V04.

Data set [3] has as its target T1, NR4A1 (Homo sapiens, UniProt P22736). The data set can be described thus: E3 ligase-mediated NR4A1 degradation in transfected HEK293T cells (immunoblotting). It is filed as cell-based. Conditions: HEK293T transfected with NR4A1, with or without CRBN or VHL; 3 μM, 6 hrs. The method, then: FIG. 4A. Efficiency of NR4A1-Ps in protein degradation using 3 examples of NR4A1-Ps based on CRBN (NR-C91, 92, 93) and 4 based on VHL (NR-V03, 04, 07, 50), with NR-V04 showing the best efficacy in NR4A1 degradation. FIG. 4B. NR4A1 degradation is mediated by targeted E3 ligases. HEK293T cells were transfected with NR4A1, with or without overexpression of CRBN or VHL. 36 hrs after transfection, cells were treated with 3 μM of NR-C91 or NR-V04 for 6 hrs for immunoblotting.
Developing NR4A1-Ps. Due to the diverse function of NR4A1 in different cancer types, both agonistic and antagonistic ligands of NR4A1 are of interest in development (25). […] 4 cytosporone-B-based and 10 celastrol-based NR4A1-Ps using polyethylene glycol (PEG) linkers of various length have already been synthesized (FIG. 3 showing several examples).

Data set [4] in a line: Pharmacokinetics in mouse, plasma by LC/MS/MS. It is filed as in vivo. As to the method:
Plasma concentrations of NR-V04 were determined by LC/MS/MS (Instrument: AB Sciex 6500 (#15)) using service from BioDuro Inc, at different time points after mice receiving iv injection of 2 mg/kg or ip injection of 20 mg/kg. PK values for iv (2 mg/kg, FIG. 17A) or ip (20 mg/kg, FIG. 17B) are shown and summarized (FIG. 17C).
PK was determined for NR-V04 for iv. injection of 2 mg/kg or ip injection of 20 mg/kg (FIG. 17).

Data set [5] concerns the target T1, NR4A1. The data set can be described thus: Degradation of endogenous NR4A1 in T47D breast cancer cells. Set-up: degrade endogenous NR4A1 in T47D breast cancer cells; endogenous in cells; host or cells: T47D breast cancer cells. It is filed as cell-based. Particulars: 1 μM.

T1 sequence (P22736 whole entry, species assumed): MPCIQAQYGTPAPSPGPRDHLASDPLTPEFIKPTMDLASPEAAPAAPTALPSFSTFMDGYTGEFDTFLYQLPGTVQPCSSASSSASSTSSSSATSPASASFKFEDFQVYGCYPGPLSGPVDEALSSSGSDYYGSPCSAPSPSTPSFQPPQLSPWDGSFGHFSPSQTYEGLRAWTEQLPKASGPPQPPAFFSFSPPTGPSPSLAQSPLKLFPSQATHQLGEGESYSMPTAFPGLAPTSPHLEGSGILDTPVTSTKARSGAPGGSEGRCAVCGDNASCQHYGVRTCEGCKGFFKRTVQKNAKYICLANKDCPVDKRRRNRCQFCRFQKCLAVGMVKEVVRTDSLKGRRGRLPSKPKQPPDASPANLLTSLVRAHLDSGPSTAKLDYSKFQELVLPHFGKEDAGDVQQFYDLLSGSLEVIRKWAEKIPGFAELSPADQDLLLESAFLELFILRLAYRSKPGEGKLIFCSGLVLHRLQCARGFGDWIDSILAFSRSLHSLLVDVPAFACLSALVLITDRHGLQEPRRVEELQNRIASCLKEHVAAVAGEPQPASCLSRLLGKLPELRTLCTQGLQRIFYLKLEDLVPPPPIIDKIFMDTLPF

For the compound `CC1=C(O)C(=O)C=C2C1=CC=C1[C@@]2(C)CC[C@@]2(C)[C@@H]3C[C@](C)(C(=O)NCCOCCOCCOCCOCC(=O)N[C@H](C(=O)N4C[C@H](O)C[C@H]4C(=O)N[C@@H](C)c4ccc(-c5scnc5C)cc4)C(C)(C)C)CC[C@]3(C)CC[C@]12C` [NR-V04], the “cell killing (% viability)” value in the data set with T47D cells is “more robust killing relative to celastrol or NR-V04-NT”. Besides, the tumor suppressing effect result in the data set on B16F10 melanoma [1] is given as “this effect is diminished”. In addition, the tumor volume result in the data set on RENCA cells (8 mg/kg i.p. weekly from day 15) is on record as “significant reduction”. The TI-Tregs result in the data set with RENCA cells (20 mg/kg once a week for 3 weeks) was “decreased TI-Tregs”. In addition, in the data set with B16F10 melanoma [2] (B16F10, 1.8 mg/kg twice weekly for 3 weeks), the TI-Tregs result is on record as “decreased TI-Tregs”. Also, the tumor growth entry in the data set on B16F10 melanoma [2] (B16F10 in C57BL/6J male mice, 1.8 mg/kg NR-V04 or 0.75 mg/kg celastrol twice weekly for 3 weeks) is “significantly reduces tumor growth”. Also, in the data set with CD8+ T cells, the “central memory CD8+ T cells (CD44+CD62L+)” value is given as “no significant change” and the “effector memory population of CD8+ T cells (CD44+CD62L−)” value is given as “significant increase”. Moreover, in the data set on human T cells from PBMC, the “T cell populations other than Tregs” value was “no impact on various T cell populations” and the Tregs result was “selectively elimination of Tregs”. The “NR4A1 degradation with overexpression of the corresponding E3 ligase” value on NR4A1 [3] is listed as “overexpression of their corresponding E3 ligases facilitated NR4A1-P-mediated degradation of NR4A1”. Also, the average half-life in data set [4] (ip injection 20 mg/kg) turned out to be 8.58 h. In addition, the average half-life in data set [4] (iv injection 2 mg/kg) worked out at 5.36 h. The NR4A1 degradation result at NR4A1 [5] is “best efficiency in inducing NR4A1 degradation”.
